In patent publication US20090196917A1, “Liposomal Formulations of Hydrophobic Lactone Drugs in the Presence of Metal Ions” (University of Kentucky Research Foundation, priority 2008, published 2009):
Values joined by “and” are separate entries in the source; they are usually repeats but may differ in a detail not shown here. Equal values may be shown once.

Key:
[1] = after intravenous administration, animal data; cited from earlier work
[2] = after 24 hrs, novel approach (active loading)
[3] = Active loading of DB-67 into Ca(OAc)2 DSPC/m-PEG DSPE vesicles (Example 15); settings: end of loading
[4] = pH 7.4
[5] = Active loading of DB-67 into liposomes, calcium acetate gradient (Example 14); settings: liposomes made by active loading procedure, pH and calcium ion gradient, 40° C.

- retained drug [2]: approximately 50%
- intravesicular DB-67 concentration [3]: ~21 mM and ~10 mg/mL
- half-life for release (liposome retention) [4]: 22 ± 6 h
- suspension drug concentration (all drug being entrapped) [5]: ≤ 3 mM
Structure (SMILES): CC[C@@]1(O)C(=O)OCc2c1cc1n(c2=O)Cc2c-1nc1ccc(O)cc1c2[Si](C)(C)C(C)(C)C [DB-67, silatecan 7-t-butyldimethylsilyl-10-hydroxycamptothecin]
- lactone to total AUC [1]: > 90%
